The results in this text go back to PMC10382406, “Head-to-head comparison of different classes of FAP radioligands designed to increase tumor residence time: monomer, dimer, albumin binders, and small molecules vs peptides” (European Journal of Nuclear Medicine and Molecular Imaging, 2023).

Usually IC50 stands for the concentration needed to halve the response being measured. A higher IC50 goes with a need for much substance.

In the test the target is T1, hFAP (Homo sapiens, UniProt Q12884).
T1 sequence (Q12884 1-760): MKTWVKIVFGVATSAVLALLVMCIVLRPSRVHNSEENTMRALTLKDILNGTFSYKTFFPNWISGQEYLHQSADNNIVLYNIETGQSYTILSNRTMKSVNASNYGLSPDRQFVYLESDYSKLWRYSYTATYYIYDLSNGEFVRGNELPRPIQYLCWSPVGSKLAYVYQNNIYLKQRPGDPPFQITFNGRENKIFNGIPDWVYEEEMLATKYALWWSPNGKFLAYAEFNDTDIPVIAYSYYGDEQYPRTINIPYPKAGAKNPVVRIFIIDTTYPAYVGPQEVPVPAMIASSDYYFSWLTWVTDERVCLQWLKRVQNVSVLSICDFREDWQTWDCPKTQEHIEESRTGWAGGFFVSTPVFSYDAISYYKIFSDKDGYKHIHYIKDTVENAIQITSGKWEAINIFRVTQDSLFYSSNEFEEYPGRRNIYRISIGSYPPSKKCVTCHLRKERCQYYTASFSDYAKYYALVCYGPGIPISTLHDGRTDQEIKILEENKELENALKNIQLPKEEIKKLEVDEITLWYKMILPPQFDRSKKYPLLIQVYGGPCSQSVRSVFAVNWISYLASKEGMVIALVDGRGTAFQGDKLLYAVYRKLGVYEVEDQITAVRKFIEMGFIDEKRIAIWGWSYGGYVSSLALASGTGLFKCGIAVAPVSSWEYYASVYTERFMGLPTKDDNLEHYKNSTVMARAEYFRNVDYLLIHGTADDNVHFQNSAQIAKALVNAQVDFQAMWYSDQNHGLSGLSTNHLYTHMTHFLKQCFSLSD
Description: In vitro inhibition assay on hFAP (substrate Z-Gly-Pro-AMC). In kind it is biochemical. Particulars: isolated hFAP 200 pM, Z-Gly-Pro-AMC 20 μM, room temperature. How it is done:
The IC50 of all the ligands against isolated hFAP protein was assessed by an inhibition assay following published protocols (Supplementary Information and Supplementary Fig. 3).
In vitro inhibition assay on hFAP
The enzymatic activity of hFAP on the substrate Z-Gly-Pro-AMC was measured at room temperature on a microtiter plate reader, monitoring the fluorescence at an excitation wavelength of 360 nm and an emission wavelength of 465 nm. The assay was performed by mixing the substrate (20 μM), hFAP (200 pM, constant), and the ligands in assay buffer (50 mM Tris, 1 M NaCl, 1 mg/mL BSA, pH=7.5), with serial dilution of the inhibitors ranging from 250 nM to 2 fM, 1:2 in a total volume of 20 μL.
Experiments were performed in triplicate, and the mean fluorescence values were fitted using GraphPad Prism 9 (equation used: Y = Bottom + (Top − Bottom)/(1 +
((X^HillSlope)/(IC50^HillSlope)))). The IC50 value is defined as the concentration of ligand (inhibitor) required to reduce the enzyme activity by 50% after the addition of the substrate.
The results are presented in the Supplemental Figure 3.
(1 picture or pasted object on this page, not shown here)
On to `CN(CCCN1CCN(C(=O)CC(NC(=O)CN2CCN(CC(=O)O)CCN(CC(=O)O)CCN(CC(=O)O)CC2)C(=O)N2CCN(CCCN(C)c3ccc4nccc(C(=O)NCC(=O)N5CC(F)(F)C[C@H]5C#N)c4c3)CC2)CC1)c1ccc2nccc(C(=O)NCC(=O)N3CC(F)(F)C[C@H]3C#N)c2c1` (stereo partly shown) [FAPI-46-F1D], for which the midpoint of inhibition, the IC50, lay at 0.158 ± 0.0145 nM.

With `Cc1cc(-c2ccc(NC(=O)CC(NC(=O)CN3CCN(CC(=O)O)CCN(CC(=O)O)CCN(CC(=O)O)CC3)C(=O)N3CCN(CCCN(C)c4ccc5nccc(C(=O)NCC(=O)N6CC(F)(F)CC6C#N)c5c4)CC3)c(C)c2)ccc1N=Nc1ccc2c(S(=O)(=O)O)cc(S(=O)(=O)O)c(N)c2c1O` (stereo not shown) [FAPI-46-EB], it took 0.634 ± 0.102 nM to reach half-maximal inhibition (IC50). In turn, `CC(C)Cc1ccc(C(C)C(=O)NCC(NC(=O)CN2CCN(CC(=O)O)CCN(CC(=O)O)CCN(CC(=O)O)CC2)C(=O)N2CCN(CCCN(C)c3ccc4nccc(C(=O)NCC(=O)N5CC(F)(F)C[C@H]5C#N)c4c3)CC2)cc1` (stereo partly shown) [FAPI-46-Ibu] gave a half-inhibitory concentration (IC50) of 0.0394 ± 0.0161 nM.

Compound `CN(CCCN1CCN(C(=O)CN2CCN(CC(=O)O)CCN(CC(=O)O)CCN(CC(=O)O)CC2)CC1)c1ccc2nccc(C(=O)NCC(=O)N3CC(F)(F)C[C@H]3C#N)c2c1` [FAPI-46, reference compound] gave a 50% inhibitory concentration (IC50) of 0.247 ± 0.017 nM.
